In patent US7413853B2, “Modulation of metabolism of steroids and xenobiotics” (The Salk Institute for Biological Studies, priority 2001, dated 2008):
“Also recorded” adds a separate entry of the source. Where two headings read alike, the source gives them in different places.

Experiments:
[1] = test system: rat CYP3A23 gene cellular promoter
Method: The PCR-amplified sequences and target mutagenesis were confirmed by DNA sequencing.
(§1) All compounds were purchased from Sigma.
The above notion would predict: (1) The SXR/PXR response element is essential for the activation of CYP3A genes; and (2) The response elements of SXR and PXR are interchangeable. Therefore, mutagenesis analysis was performed on the promoter of the rat CYP3A23 gene to examine these predictions.

SXR [2] = assay: Activation of SXR in transfection-based assays; design: activation of SXR: dose or concentration left out as unconfirmed
Method: To characterize its response properties, a large variety of steroids, including intermediate and major products of known steroid biosynthetic pathways were tested.

GR = molecular target: T1, GR (Homo sapiens, UniProt P04150); assay: Activity of corticosterone catabolites on GR; assay type: cell-based; settings: reduced or hydroxylated corticosterone derivatives
T1 sequence (P04150 1-777): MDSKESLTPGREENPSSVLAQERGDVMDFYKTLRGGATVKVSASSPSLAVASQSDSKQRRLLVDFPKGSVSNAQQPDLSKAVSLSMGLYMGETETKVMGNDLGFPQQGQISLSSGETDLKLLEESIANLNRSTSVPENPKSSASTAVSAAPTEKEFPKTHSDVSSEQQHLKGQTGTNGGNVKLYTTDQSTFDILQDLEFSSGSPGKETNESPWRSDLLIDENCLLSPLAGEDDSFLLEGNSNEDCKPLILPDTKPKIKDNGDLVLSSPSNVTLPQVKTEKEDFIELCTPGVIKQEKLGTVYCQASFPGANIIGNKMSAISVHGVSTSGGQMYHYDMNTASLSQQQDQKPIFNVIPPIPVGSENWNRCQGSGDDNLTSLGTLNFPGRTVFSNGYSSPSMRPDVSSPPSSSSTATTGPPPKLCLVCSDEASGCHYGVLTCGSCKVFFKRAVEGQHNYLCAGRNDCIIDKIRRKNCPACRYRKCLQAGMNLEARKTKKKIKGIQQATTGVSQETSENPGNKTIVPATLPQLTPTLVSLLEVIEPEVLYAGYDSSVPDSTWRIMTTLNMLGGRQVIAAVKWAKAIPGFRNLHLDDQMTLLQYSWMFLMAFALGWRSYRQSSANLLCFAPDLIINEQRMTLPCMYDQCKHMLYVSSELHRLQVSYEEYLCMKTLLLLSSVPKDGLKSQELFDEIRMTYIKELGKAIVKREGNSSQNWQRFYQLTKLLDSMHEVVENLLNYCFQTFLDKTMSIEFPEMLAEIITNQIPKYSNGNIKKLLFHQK

SXR [3] = molecular target: T2, SXR (Homo sapiens, UniProt O75469); assay: Activation of SXR by thiazolidinediones in hepatocyte cultures and transgenic animals
T2 sequence (O75469 1-434): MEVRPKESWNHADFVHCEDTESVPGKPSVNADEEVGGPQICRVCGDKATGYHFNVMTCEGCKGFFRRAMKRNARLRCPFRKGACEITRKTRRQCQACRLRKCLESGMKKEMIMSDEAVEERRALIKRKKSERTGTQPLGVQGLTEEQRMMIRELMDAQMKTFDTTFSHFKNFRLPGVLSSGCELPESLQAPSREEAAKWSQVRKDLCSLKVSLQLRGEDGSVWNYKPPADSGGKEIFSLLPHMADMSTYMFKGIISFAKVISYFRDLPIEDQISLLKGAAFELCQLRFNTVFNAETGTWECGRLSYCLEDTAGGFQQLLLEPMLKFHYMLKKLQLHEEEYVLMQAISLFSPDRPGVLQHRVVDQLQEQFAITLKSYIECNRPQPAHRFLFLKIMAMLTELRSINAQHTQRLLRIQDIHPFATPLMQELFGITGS
Method: as §1
The animals were allowed free access to food and water at all times. […] When necessary, mice were treated with a single intraperitoneal injection of DEX (50 mg/kg), PCN (40 mg/kg), or CTZ (50 mg/kg).

CAR = molecular target: T3, CAR (Mus musculus, UniProt O35627); assay: tk-UGT1A6/DR-3 luciferase reporter transfected into CV-1 cells with CAR expression vector; assay type: cell-based; settings: tk-UGT1A6/DR-3-Luc
T3 construct: expressed in transfected cells; host or cells: monkey kidney CV-1 cells
T3 sequence (O35627 1-358): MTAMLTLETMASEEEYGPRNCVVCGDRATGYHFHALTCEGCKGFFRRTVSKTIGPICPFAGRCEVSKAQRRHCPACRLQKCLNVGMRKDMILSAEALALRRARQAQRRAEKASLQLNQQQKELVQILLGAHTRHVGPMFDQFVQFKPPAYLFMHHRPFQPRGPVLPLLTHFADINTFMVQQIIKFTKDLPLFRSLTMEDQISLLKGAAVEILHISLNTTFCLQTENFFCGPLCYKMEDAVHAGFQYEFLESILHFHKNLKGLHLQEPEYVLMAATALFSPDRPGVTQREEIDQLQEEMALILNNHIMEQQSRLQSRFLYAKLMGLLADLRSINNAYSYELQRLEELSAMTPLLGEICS
Description: The reporter gene comprises a thymadine kinase (TK) linked to UGT1A6/DR-3 linked to a luciferace (LUC).
In an exemplary assay, a luciferase reporter gene containing the UGT1A6/DR-3 upstream of a minimal thymidine kinase (tk) promoter was constructed and transfected into monkey kidney CV-1 cells together with expression vectors for SXR, PXR, or CAR.
In FIG. 2, the tk-UGT1A6/DR3-Luc construct comprises a UGT inverted or direct repeat and/or a nuclear receptor binding site such that activation of the response element results in transcription of UGT. […] The response element can also comprise an inverse repeat of a suitable half site separated by a 6 nucleotide spacer, or an inverse repeat of a variant thereof, separated by a 6 nucleotide spacer.

PXR [4] = molecular target: T4, PXR (Mus musculus, UniProt O54915)
T4 sequence (O54915 1-431): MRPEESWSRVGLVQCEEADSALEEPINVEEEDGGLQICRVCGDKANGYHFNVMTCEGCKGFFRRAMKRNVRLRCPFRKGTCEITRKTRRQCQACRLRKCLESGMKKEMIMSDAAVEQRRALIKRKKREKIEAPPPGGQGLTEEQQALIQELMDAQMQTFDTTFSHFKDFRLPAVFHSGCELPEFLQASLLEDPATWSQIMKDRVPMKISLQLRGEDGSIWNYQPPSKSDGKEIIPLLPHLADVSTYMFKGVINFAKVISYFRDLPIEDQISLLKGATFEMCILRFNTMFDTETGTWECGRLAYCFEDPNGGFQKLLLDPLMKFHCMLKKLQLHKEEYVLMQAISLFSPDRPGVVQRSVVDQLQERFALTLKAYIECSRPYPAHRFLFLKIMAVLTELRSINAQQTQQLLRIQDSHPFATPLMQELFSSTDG

PXR [5] = molecular target: T4, PXR; assay: Activation of mouse receptor PXR by the panel of compounds
[6] = clinical trials, 2510 patients; alanine aminotransferase level > three times the upper limit of normal; cited from earlier work
[7] = transfection-based assays, steroids tested

Cc1ccc2cc3c(ccc4ccccc43)c3c2c1CC3 [3MC, 3-methylcholanthrene]
activation of CYP3A23 cellular promoter reporter [1]: fail to activate or behave as poor activators

C[C@]12CCC(=O)C[C@@H]1CC[C@@H]1[C@@H]2[C@@H](O)C[C@]2(C)[C@@H](C(=O)CO)CC[C@@H]12 [5α]
activation of SXR by products of steroid catabolism (SXR [2]): effective SXR activators
activity on GR (GR): slightly active

C[C@]12CCC(=O)C[C@H]1CC[C@@H]1[C@@H]2[C@@H](O)C[C@]2(C)[C@@H](C(=O)CO)CC[C@@H]12 [5β]
activation of SXR by products of steroid catabolism (SXR [2]): effective SXR activators
activity on GR (GR): completely inactive

C[C@]12C[C@H](O)[C@H]3[C@@H](C[C@@H](O)C4=CC(=O)CC[C@@]43C)[C@@H]1CC[C@@H]2C(=O)CO [6β-hydroxy corticosterone]
activation of SXR by products of steroid catabolism (SXR [2]): virtually inactive; also recorded: virtual inactivity
activity on GR (GR): slightly active

CN(CCOc1ccc(CC2SC(=O)NC2=O)cc1)c1ccccn1 (stereo not drawn) [BRL, Rosiglitazone]
activation of SXR by TZDs (SXR [3]; hepatocyte cultures and transgenic animals): fail to activate SXR

CC/C(=C(/CC)c1ccc(O)cc1)c1ccc(O)cc1 [DES, diethylstilbestrol]
activation of SXR by compounds known to induce CYP3A4 (SXR [2]): most potent activators

C[C@]12CC[C@H](O)CC1=CC[C@@H]1[C@@H]2CC[C@]2(C)C(=O)CC[C@@H]12 [DHEA, dehydroepiandrosterone]
SXR activation of DR-3, DR-4 and DR-5 elements (SXR [2]): intermediate group

Clc1cnc(Oc2ccc(Oc3ncc(Cl)cc3Cl)cc2)c(Cl)c1 [TCPOBOP, 1,4-bis[2-(3,5-dichloropyridyloxy)] benzene]
effect on CAR activation of UGT reporter (CAR): potentiated

C[C@]12CCC(=O)C=C1CC[C@@H]1[C@@H]2[C@@H](O)C[C@]2(C=O)[C@@H](C(=O)CO)CC[C@@H]12 [aldosterone]
activation of SXR (SXR [2]): inactive
SXR activation of DR-3, DR-4 and DR-5 elements (SXR [2]; series of transfections): little response

C[C@@]12CCC[C@H]1[C@@H]1CC[C@H]3C[C@@H](O)CC[C@]3(C)[C@H]1CC2 [androstanol]
effect on CAR activation of UGT reporter (CAR): inhibited

C[C@]12C[C@H](O)[C@H]3[C@@H](CCC4=CC(=O)CC[C@@]43C)[C@@H]1CC[C@@H]2C(=O)CO [corticosterone]
activation of SXR by compounds known to induce CYP3A4 (SXR [2]): most potent activators
SXR activation of DR-3, DR-4 and DR-5 elements (SXR [2]; series of transfections): among the best activators
activation of SXR (SXR [2]; [7]): most potent and efficacious activator; also recorded: activated; also recorded: strongest known activator

C[C@]12CCC(=O)C=C1CC[C@@H]1[C@@H]2[C@@H](O)C[C@@]2(C)[C@H]1CC[C@]2(O)C(=O)CO [cortisol]
SXR activation of DR-3, DR-4 and DR-5 elements (SXR [2]; series of transfections): little response

C[C@]12CCC(=O)C=C1CC[C@@H]1[C@@H]2C(=O)C[C@@]2(C)[C@H]1CC[C@]2(O)C(=O)CO [cortisone]
SXR activation of DR-3, DR-4 and DR-5 elements (SXR [2]; series of transfections): intermediate group

O=c1oc2cc(O)ccc2c2oc3cc(O)ccc3c12 [coumestrol]
activation of SXR by compounds known to induce CYP3A4 (SXR [2]): most potent activators

C[C@]12CCC(=O)C[C@@H]1CC[C@@H]1[C@@H]2CC[C@]2(C)[C@@H](O)CC[C@@H]12 [dihydrotestosterone]
SXR activation of DR-3, DR-4 and DR-5 elements (SXR [2]): among the best activators
activation of SXR (SXR [2]): remarkably effective activators

C[C@]12CC[C@@H]3c4ccc(O)cc4CC[C@H]3[C@@H]1CC[C@@H]2O [estradiol, 17β-estradiol]
induction of CYP3A23 cellular promoter reporter [1]: significant induction
activation of SXR by compounds known to induce CYP3A4 (SXR [2]): most potent activators
SXR activation of DR-3, DR-4 and DR-5 elements (SXR [2]; series of transfections): among the best activators
activation of SXR (SXR [2]; [7]): remarkably effective activators
activation of PXR (PXR [4]): similarly activated

CCC1(c2ccccc2)C(=O)NC(=O)NC1=O [phenobarbital]
activation of CYP3A23 cellular promoter reporter [1]: fail to activate or behave as poor activators
induction of CYP3A23 cellular promoter reporter [1]: significant induction

CC(=O)[C@H]1CC[C@H]2[C@@H]3CC=C4C[C@@H](O)CC[C@]4(C)[C@H]3CC[C@]12C [pregnenolone]
activation of CYP3A23 cellular promoter reporter [1]: fail to activate or behave as poor activators
induction of CYP3A23 cellular promoter reporter [1]: significant induction
SXR activation of DR-3, DR-4 and DR-5 elements (SXR [2]; series of transfections): among the best activators

CC(=O)[C@H]1CC[C@H]2[C@@H]3CCC4=CC(=O)CC[C@]4(C)[C@H]3CC[C@]12C [progesterone]
SXR activation of DR-3, DR-4 and DR-5 elements (SXR [2]; series of transfections): among the best activators
activation of SXR (SXR [2]; [7]): activated

C[C@]12CC[C@H]3[C@@H](CCC4=CC(=O)CC[C@@]43C)[C@@H]1CC[C@@H]2O [testosterone]
activation of PXR (PXR [5]): similarly activated
activation of SXR (SXR [2]): activated

Cc1c(C)c2c(c(C)c1O)CCC(C)(COc1ccc(CC3SC(=O)NC3=O)cc1)O2 (stereo not drawn) [troglitazone]
troglitazone-induced hepatotoxicity, share of patients [6]: 1.9%
activation of SXR by TZDs (SXR [3]): activate SXR

estrogen
activation of SXR (SXR [2]; [7]): activated
